Patent US20040052836A1, “Pharmaceutical compositions containing at least one stable liposphere having an improved shelf life” (priority 2002, published 2004)
Structures can show the parent of a compound that is named as a salt.

Key:
rats = experiment: Rat thermal paw flick anesthesia study; type: in vivo; details: intraplantar injection 100 μL
Protocol: Liposphere containing bupivacaine (3%), tristearin (6%), and DMPC (0.75%) was tested for its local anesthetic activity in rats. Its activity was compared with that of bupivacaine HCL (3%) solution. The liposphere formulation was prepared as described in Example 1. Adult rats were given an intraplantar injection of 100 μL of either liposphere formulation or bupivacaine HCl solution. Animals were then individually placed into a Hargreaves “hotbox,” in which a beam of light, as a heat source, was focused on the plantar surface of the injected paw at various intervals after treatment. The latency for the rat to withdraw its paw was recorded, up to a maximum of 20 seconds. The earliest time point examined in these studies was 30 min. The latest time point was 120 min for animals treated with bupivacaine HCl solution (by which time latencies had returned to predrug baseline levels), and 1440 min for animals treated with liposphere formulation.

guinea pigs = experiment: Guinea pig wheal anesthesia study (pin-prick); type: in vivo; details: subcutaneous 300 μL; 3% liposphere (p<0.043) or 0.5% bupivacaine HCl solution (p<0.008); 1-tailed test; FIG. 3
Protocol: Liposphere formulation containing bupivacaine (3%), tristearin (6%), and DMPC (0.75%) and the liposphere vehicle containing tristearin (6%) and DMPC (0.75%) were evaluated for their anesthesia activities in guinea pigs. The liposphere formulation and vehicle were prepared as described in Example 1. In addition, a solution of bupivacaine HCl (0.5%) and its vehicle (normal saline solution) were evaluated for comparison. In this example, adult guinea pigs were randomly assigned to one of two groups, with each group receiving two subcutaneous injections: one of vehicle and one of the test articles. Half of the animals in each group were given the vehicle on the left side and the test article on the right side. The other half were given the test article on the left side and the vehicle on the right. Injection volume was 300 μL. There were two injections given to each animal. Both groups consisted of eight animals, four of each group received an injection of the vehicle on the left side of the spine, and the remaining four animals received an injection of the vehicle on the right side. […] The “anesthetic action” (the ability of local anesthetics to block the skin reflex in guinea pigs) was determined using the “pin-prick” method. […] The ability of the test compound to block the twitch responses of the guinea pig to six probings with a carefully calibrated needle algesimeter was evaluated. […]

## CCCCN1CCCCC1C(=O)Nc1c(C)cccc1C (stereo not drawn) [bupivacaine HCl solution, bupivacaine HCl]
rats; 3% bupivacaine liposphere or 3% bupivacaine HCl solution, paw withdrawal latency, FIG. 2
  duration of anesthesia post injection: up to 60 min
rats; bupivacaine HCl 3% solution
  time by which latencies had returned to predrug baseline levels: ≤ 120 min
Guinea pigs
  duration of statistically significant anesthesia compared to vehicle: up to 0.75 hours
